Series [1] concerns the target T1, Sodium/glucose cotransporter 2 (Homo sapiens, UniProt P31639).
T1 sequence (P31639 whole entry): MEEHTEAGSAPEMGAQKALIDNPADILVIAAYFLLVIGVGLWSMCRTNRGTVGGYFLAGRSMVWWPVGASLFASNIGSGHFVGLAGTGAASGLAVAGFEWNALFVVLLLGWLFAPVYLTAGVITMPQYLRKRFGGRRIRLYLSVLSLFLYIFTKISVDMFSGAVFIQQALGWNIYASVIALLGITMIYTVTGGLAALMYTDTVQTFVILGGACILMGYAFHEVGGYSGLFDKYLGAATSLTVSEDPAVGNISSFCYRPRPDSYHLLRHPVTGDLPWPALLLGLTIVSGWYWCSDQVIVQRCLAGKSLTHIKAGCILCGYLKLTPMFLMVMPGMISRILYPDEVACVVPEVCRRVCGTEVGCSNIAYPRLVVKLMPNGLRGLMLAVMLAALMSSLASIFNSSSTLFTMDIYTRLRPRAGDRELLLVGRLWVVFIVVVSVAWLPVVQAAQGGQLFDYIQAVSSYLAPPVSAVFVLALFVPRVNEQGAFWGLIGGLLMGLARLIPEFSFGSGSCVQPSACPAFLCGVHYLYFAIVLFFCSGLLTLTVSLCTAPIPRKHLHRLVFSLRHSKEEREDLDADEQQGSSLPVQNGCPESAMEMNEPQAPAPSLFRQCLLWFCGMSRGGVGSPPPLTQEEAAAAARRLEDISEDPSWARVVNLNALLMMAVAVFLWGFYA
As to the kind of experiment: Inhibition of human kidneyl SGLT2 expressed in CHOK1 cells assessed as reduction in Na-dependent [14C]-AMG uptake preincubated for 10 mins followed by [14C]-AMG addition measured after 2 hrs by TopCount method. In kind it is cell-based.

Series [2] in a line: Metabolic stability in human liver microsomes at 1 uM after 10 mins in presence of NADPH. The series is classed as ADME, microsome. To be noted: read-out: Stability. A general note: Liver microsomes are a subcellular fraction often used to study metabolism.
Series [3] can be described thus: Metabolic stability in mouse liver microsomes at 1 uM after 10 mins in presence of NADPH. In kind it is ADME, microsome. To be noted: read-out: Stability.
Series [4] is described as follows: Metabolic stability in rat liver microsomes at 1 uM after 10 mins in presence of NADPH. In kind it is ADME, microsome. The following applies: read-out: Stability.
Series [5] addresses T2, SGLT1 (sodium/glucose cotransporter 1) (Homo sapiens, UniProt P13866).
T2 sequence (P13866 whole entry): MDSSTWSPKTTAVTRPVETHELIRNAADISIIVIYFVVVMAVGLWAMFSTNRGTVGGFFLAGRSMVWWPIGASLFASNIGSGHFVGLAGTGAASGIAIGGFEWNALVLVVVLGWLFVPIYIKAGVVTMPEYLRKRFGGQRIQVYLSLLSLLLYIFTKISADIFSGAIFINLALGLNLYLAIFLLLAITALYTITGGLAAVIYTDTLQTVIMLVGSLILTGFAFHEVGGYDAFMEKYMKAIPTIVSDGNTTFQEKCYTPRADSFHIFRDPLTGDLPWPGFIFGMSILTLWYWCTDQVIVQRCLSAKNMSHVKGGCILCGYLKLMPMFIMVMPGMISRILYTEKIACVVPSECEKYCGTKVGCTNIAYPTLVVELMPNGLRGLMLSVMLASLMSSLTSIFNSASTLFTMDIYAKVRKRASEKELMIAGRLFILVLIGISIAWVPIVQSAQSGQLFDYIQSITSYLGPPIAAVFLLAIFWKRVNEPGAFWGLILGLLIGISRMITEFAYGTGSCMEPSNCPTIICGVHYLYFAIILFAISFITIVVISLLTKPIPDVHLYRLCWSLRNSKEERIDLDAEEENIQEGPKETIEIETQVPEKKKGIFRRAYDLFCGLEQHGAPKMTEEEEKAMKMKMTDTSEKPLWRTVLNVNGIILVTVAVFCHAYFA
As to the kind of experiment: Inhibition of human small intestinal SGLT1 expressed in CHOK1 cells assessed as reduction in Na-dependent [14C]-AMG uptake at 0.3 uM preincubated for 10 mins followed by [14C]-AMG addition measured after 2 hrs by TopCount method relative to control. In kind it is cell-based. The following applies: CHO-K1 cells expressing human SGLT1, probe [14C]-AMG.

For series [6], the target named is T3, Sodium/glucose cotransporter 2 (Homo sapiens) (UniProt P31639).
T3 sequence (whole entry): T1 sequence (P31639 whole entry)
As to the kind of experiment: Inhibition of human kidneyl SGLT2 expressed in CHOK1 cells assessed as reduction in Na-dependent [14C]-AMG uptake at 0.3 uM preincubated for 10 mins followed by [14C]-AMG addition measured after 2 hrs by TopCount method relative to control. The series is classed as cell-based.

A short description of series [7]: Half life in Sprague-Dawley rat at 2 mg/kg, iv. The series is classed as ADME, organism-based. To be noted: in vivo.
Series [8] can be described thus: Clearance in Sprague-Dawley rat at 2 mg/kg, iv. In kind it is ADME, organism-based. To be noted: in vivo.
Series [9] can be described thus: Volume of distribution at steady state in Sprague-Dawley rat at 2 mg/kg, iv. The series is classed as ADME, organism-based. The following applies: in vivo, read-out: Vdss.
Series [10] in a line: Cmax in Sprague-Dawley rat at 10 mg/kg, po. In kind it is ADME, organism-based. Details: dose 10 mg/kg, route oral. The following applies: in vivo.
A short description of series [11]: Tmax in Sprague-Dawley rat at 10 mg/kg, po. To be noted: in vivo. In kind it is ADME, organism-based.
Series [12] in a line: AUC (0 to infinity) in Sprague-Dawley rat at 10 mg/kg, po. The series is classed as ADME, organism-based. Further details: dose 10 mg/kg, route oral, time infinity. The following applies: in vivo.
Series [13] is described as follows: Oral bioavailability in Sprague-Dawley rat at 10 mg/kg. The series is classed as ADME, organism-based. The following applies: in vivo.
A short description of series [14]: Half life in Sprague-Dawley rat at 10 mg/kg, po. In kind it is ADME, organism-based. To be noted: in vivo.
Series [15] can be described thus: Half life in human hepatocytes at 1 uM. In kind it is ADME, cell-based, Hepatocyte.
The nature of series [16]: Half life in monkey hepatocytes at 1 uM. The series is classed as ADME, cell-based, Macaca mulatta, Hepatocyte. To be noted: rhesus monkey.
A short description of series [17]: Half life in Sprague-Dawley rat hepatocytes at 1 uM. In kind it is ADME, cell-based, Hepatocyte.
Series [18] is described as follows: Half life in dog hepatocytes at 1 uM. The series is classed as ADME, cell-based, Canis lupus familiaris, Hepatocyte.

As a reminder, the IC50 is the concentration that inhibits the measured activity by half. What is called inhibition is the share of the control response that was lost under treatment. Usually half-life stands for the time needed for the level to fall by half in the phase considered. The clearance is the rate of elimination divided by the concentration. As a reminder, the Cmax is the peak of the concentration-time curve. What is called Tmax is the time from dosing to the highest level. Broadly, the AUC(0-inf) is the area under the concentration-time curve extrapolated to infinity. Usually bioavailability stands for the share of a dose that reaches the circulation, judged against a reference dose that is usually intravenous.

Take `COc1cc(C)c(Cc2cc3c(s2)CCN(C#N)C3)cc1[C@@H]1O[C@H](CO)[C@@H](F)[C@H](O)[C@H]1O`: the IC50 in series [1] was determined as 5.3 nM.
Regarding `COc1c(Cc2ccc3c(c2)OCCO3)cc([C@@H]2O[C@H](CO)[C@@H](F)[C@H](O)[C@H]2O)c2c1CCO2`, the IC50 in series [1] worked out at 7.5 nM. The remaining at 10 min, 1 µM came out at 91% in series [2], 94% in [3] and 2% in [4].
For `Cc1cc(O)c([C@@H]2O[C@H](CO)[C@@H](F)[C@H](O)[C@H]2O)cc1Cc1cc2c(s1)CCN(C(=O)N1CCCC1)C2` the same measures were 13.6 nM, 71%, 74% and 82%.
As to `Cc1ccc([C@@H]2O[C@H](CO)[C@@H](F)[C@H](O)[C@H]2O)cc1Cc1cc2c(s1)CCN(C(=O)C1CCCC1)C2`, the inhibition at 2 h, 0.3 µM in [5] worked out at 49%. The inhibition in [6] was determined as 59%.
Turning to `OC[C@H]1O[C@@H](c2cc(Cc3ccc4c(c3)OCCO4)c3c(c2O)CCO3)[C@H](O)[C@@H](O)[C@@H]1F`, the remaining at 10 min, 1 µM is 97% in series [2], 97% in series [3] and 64% in series [4]. The same compound showed a half-life in [7] of 18.6 min. Besides, the clearance in series [8] was found to be 28.1 mL/min/kg. Besides, the Vd in series [9] is 1.22 L/kg. In [10], the Cmax was 168 ng/mL. In addition, the Tmax in [11] turned out to be 0.25 h. For the same compound, in series [12], the AUC(0-inf) was 307 ng·h/mL. The same compound showed a bioavailability in series [13] of 4%.
Regarding `Cc1cc(O)c([C@@H]2O[C@H](CO)[C@@H](F)[C@H](O)[C@H]2O)cc1Cc1cc2c(s1)CCN(C(=O)c1nccs1)C2`, the remaining at 10 min, 1 µM was found to be 69% in series [2], 66% in series [3] and 91% in series [4].
On to `COc1c([C@@H]2O[C@H](CO)[C@@H](F)[C@H](O)[C@H]2O)cc(Cc2ccc3c(c2)SCCO3)c2c1CCO2`, for which the IC50 in [1] was 8.3 nM. Also, the figures for the remaining at 10 min, 1 µM in [2], in series [3] and in series [4] were 73%, 61% and 12%, respectively.
For the compound `OC[C@H]1O[C@@H](c2cc(Cc3ccc4c(c3)OCCO4)c(O)c3c2OCC3)[C@H](O)[C@@H](O)[C@@H]1F`, the inhibition at 2 h, 0.3 µM in series [5] came out at 31%. The inhibition in series [6] was 26%.
As to `Cc1ccc([C@@H]2O[C@H](CO)[C@@H](F)[C@H](O)[C@H]2O)cc1Cc1cc2c(s1)CCN(C#N)C2`, in series [6], the inhibition was found to be 76%.
With `Cc1cc(O)c([C@@H]2O[C@H](CO)[C@@H](F)[C@H](O)[C@H]2O)cc1Cc1cc2c(s1)CCN(C#N)C2`, the IC50 in [1] turned out to be 2.6 nM. Besides, the results for the remaining at 10 min, 1 µM in series [2], in series [3] and in series [4] were 95%, 91% and 79%, respectively. In addition, the half-life in series [7] is 59.4 min; in series [14], 86.4 min. In series [8], this compound had a clearance of 149 mL/min/kg. Moreover, the Vd in series [9] came to 3.79 L/kg. The same compound yielded a Cmax in series [10] of 13.7 ng/mL. Moreover, the time to peak (Tmax) in series [11] is 2.2 h. Moreover, the AUC(0-inf) in series [12] stood at 44.6 ng·h/mL. Also, the bioavailability in series [13] amounted to 5%.
In the case of `CCOC(=O)N1CCc2sc(Cc3cc([C@@H]4O[C@H](CO)[C@@H](F)[C@H](O)[C@H]4O)c(O)cc3C)cc2C1`, the values for the remaining at 10 min, 1 µM in [2], in [3] and in series [4] were 80%, 86% and 78%, respectively.
For `Cc1ncc2n1-c1ccc(Cl)cc1C(c1ccccc1F)=NC2` [MIDAZOLAM], the half-life at 1 µM in [15] was 60 min; in series [16] it was 84 min.
For the compound `Cc1ccc([C@@H]2O[C@H](CO)[C@@H](F)[C@H](O)[C@H]2O)cc1Cc1cc2c(s1)CCN(C(=O)c1nccs1)C2`, in [5], the inhibition at 2 h, 0.3 µM was 39%. Further, the inhibition in series [6] was found to be 73%.
On to `O=C(O)Cc1ccccc1Nc1c(Cl)cccc1Cl` [DICLOFENAC], for which the half-life at 1 µM was 42 min in series [15], 48 min in series [17], 312 min in series [18] and 60 min in series [16].
